Test results taken from article PMC12737022, “Evaluations of Sex Differences in Dosimetry in Rats Following Perfluorohexanesulfonamide (PFHxSA) Oral Exposure” (Toxics, 2025).
In brackets after ≈: the same amount, converted by molar mass. Several values for one entry are separate records, joined by “and”; a condition that tells them apart may be missing. Equal entries are not always repeated.

Tests used:
[1] = Solubility and stability of PFHxSA corn oil dosing solutions; assay type: physicochemical; details: for Replicate percent recoveries, Day 5 / Replicate percent recoveries, Day 7 / Replicate percent recoveries, Day 14: relative to Day 0
Procedure: The stability of PFHxSA corn oil dosing solutions was also evaluated up to 14 days. PFHxSA solutions were prepared using the same lot number of the chemical as was used in Mutlu et al.. Solutions were prepared under an inert atmosphere at a 20,000 µg/mL (20 mg/mL) high-dose solution and a 2 µg/mL ([…]) low-dose solution to mimic the range of concentrations of the dosing formulations used for the in vivo study. Each batch included an MB and an LCS prepared from blank corn oil as QC. The solutions were split into two aliquots each. One aliquot was stored at 4 °C; the other aliquot was stored at room temperature, with both protected from light. The stability samples were analyzed in triplicate on Days 0, 5, 7, and 14 using the same extraction method and LC/MS/MS conditions outlined in SI Texts S2 and S3, respectively. Stability was assessed by using mean peak areas to calculate the percent recovery for each day of analysis relative to Day 0. Information on percent recovery calculation and additional experimental details concerning the stability study may be found in SI Text S2.
Text S1 Solvents and Additives for Analytical Chemistry
Solvents used for sample preparation and mobile phases include methanol (MeOH), water (H2O), and acetonitrile (ACN), which were LC/MS-grade and purchased from Honeywell Burdick & Jackson (Charlotte, NC, USA). Ammonium formate (BioUltra purity) and ammonium acetate (99% pure) were used as mobile phase additives and obtained from Millipore Sigma (St. Louis, MO, USA). Formic acid (FA; 97.5% pure) was also used as an additive; it was purchased from Honeywell Fluka. Detailed information for chemicals used for each analysis may be found in Table S1.
Text S2 Dosing-Solution Determination and Stability Assessment
Dosing solutions were extracted by liquid–liquid extraction using 50 uL aliquots of the dosing solutions and 950 uL of 0.1M formic acid in acetonitrile, vortexing the mixture at 2000 rpm, and centrifuging at 5400 × g for 10 minutes. The supernatants were drawn off and added to Waters Oasis Prime HLB 3cc 60mg (Waters, Milford, MA, USA) solid phase extraction (SPE) cartridges. Supernatants were allowed to elute through the cartridge via gravity. Finally, 100 uL of eluent was diluted using 100 uL of 1% formic acid in water. Extracts were further diluted with the extracted method blank (corn oil) to bring the concentrations to within the calibration range. Sample extracts were analyzed using the same LC/MS/MS method outlined for PFHxSA plasma and liver in Text S4. Samples were quantitated against a matrix-matched calibration curve containing a minimum of 5 points spanning 50-500 ng/mL in extract. […]
verification (CCV) sample and laboratory control sample (LCS) were injected at the start and end of each analytical batch to confirm the validity of the calibration curve and sample quantitation. Acceptance criteria for the CCV and LCS were readback concentrations ± 30% of nominal concentration. The method blank acceptance criterion was a readback concentration of PFHxSA < 0.5x the limit of quantitation (LOQ) of the method. The LOQ was 50 ng/mL in the extract. Samples were injected in sequential order (e.g., r01, r02, r03, …, etc.); no duplicate injections of samples were performed.
Assessment of the stability of PFHxSA in corn oil was conducted using the same extraction method as for dosing solutions. Analysis of PFHxSA in corn oil was conducted using the same LC/MS/MS conditions as PFHxSA dosimetry in plasma and liver (Text S4). The average ratio of PFHxSA peak area to PFOSA internal standard peak area for three replicate injections was divided by the average ratio for Day 0 to derive the percentage of recovery for a given day. No calibration curve was generated for the Stability Assessment. For quality control, the extraction blank needed to have a PFHxSA signal that was ≤ 10% the peak area of PFHxSA on Day 0; the daily LCS was acceptable with a PFHxSA/PFOSA area ratio within 30% of the Day 0 LCS. […]

[2] = Liver-to-plasma partitioning (Kp); assay type: in vivo, rat; details: individual rats
Procedure: Liver-to-plasma partitioning (Kp) for PFHxSA was assessed for each sex (SI Text S8, Table 6). There were no sex differences in PFHxSA Kp values. […] Refer to SI Table S15 for Kp results for individual rats. […]
Text S8 Liver-to-Plasma Partitioning Coefficient Calculation
Concentrations (µM) of PFHxSA in liver and plasma were used to calculate experimental liver-to-
plasma (Kp) partitioning values for both sexes across all dose levels using Equation E.
(E) K ௣ = Concentration௢௥௚௔௡Concentration௣௟௔௦௠௔

[3] = PFHxSA 0.1 mg/kg/day oral 5 days
[4] = PFHxSA 0.3 mg/kg/day oral 5 days

**Q.** Which “Stability of corn oil solutions” value ([1]; 2 µg/mL to 20,000 µg/mL, within ±30% of the initial value, up to 14 days, room and refrigerated (4 °C) temperatures) does the source give for `NS(=O)(=O)C(F)(F)C(F)(F)C(F)(F)C(F)(F)C(F)(F)C(F)(F)F` [PFHxSA, Perfluorohexanesulfonamide] here?
**A.** The value was “stable”.

**Q.** And the “MeanD14 (mean of percent recoveries for Day 14 replicates)” value ([1]; corn oil 2 µg/mL, 4 °C)?
**A.** The value was 79.3%.

**Q.** What about the “Replicate percent recoveries, Day 5” value ([1]; corn oil 2 µg/mL, 4 °C) of the same compound?
**A.** The value was 90.8% and 94.3% and 97.9%.

**Q.** And the “Replicate percent recoveries, Day 7” value ([1]; corn oil 2 µg/mL, 4 °C)?
**A.** Its value is 78.3% and 79.5% and 79.3%.

**Q.** What about the “Replicate percent recoveries, Day 14” value ([1]; corn oil 2 µg/mL, 4 °C) of the same compound?
**A.** Its value is 77.3% and 77.6% and 83.0%.

**Q.** And the “MeanD14 (mean of percent recoveries for Day 14 replicates)” value ([1]; corn oil 2 µg/mL, RT)?
**A.** The value was 97.3%.

**Q.** And the “Replicate percent recoveries, Day 5” value ([1]; corn oil 2 µg/mL, RT)?
**A.** Its value is 97.4% and 96.8% and 96.1%.

**Q.** And the “Replicate percent recoveries, Day 7” value ([1]; corn oil 2 µg/mL, RT)?
**A.** The value was 81.3% and 85.5% and 80.6%.

**Q.** And the “Replicate percent recoveries, Day 14” value ([1]; corn oil 2 µg/mL, RT)?
**A.** Its value is 97.0% and 93.3% and 102%.

**Q.** And the “MeanD14 (mean of percent recoveries for Day 14 replicates)” value ([1]; corn oil 20,000 µg/mL, 4 °C)?
**A.** The value was 128%.

**Q.** And the “Replicate percent recoveries, Day 5” value ([1]; corn oil 20,000 µg/mL, 4 °C)?
**A.** Its value is 110% (2×) and 119%.

**Q.** And the “Replicate percent recoveries, Day 7” value ([1]; corn oil 20,000 µg/mL, 4 °C)?
**A.** The value was 119% and 118% and 116%.

**Q.** What about the “Replicate percent recoveries, Day 14” value ([1]; corn oil 20,000 µg/mL, 4 °C) of the same compound?
**A.** The value was 130% and 126% and 128%.

**Q.** What about the “MeanD14 (mean of percent recoveries for Day 14 replicates)” value ([1]; corn oil 20,000 µg/mL, RT) of the same compound?
**A.** Its value is 88.6%.

**Q.** What about the “Replicate percent recoveries, Day 5” value ([1]; corn oil 20,000 µg/mL, RT) of the same compound?
**A.** The value was 97.3% and 103% and 98.1%.

**Q.** And the “Replicate percent recoveries, Day 7” value ([1]; corn oil 20,000 µg/mL, RT)?
**A.** Its value is 90.1% and 94.3% and 88.4%.

**Q.** What about the “Replicate percent recoveries, Day 14” value ([1]; corn oil 20,000 µg/mL, RT) of the same compound?
**A.** Its value is 88.0% and 87.2% and 90.5%.

**Q.** And the solubility ([1]; corn oil, oil or lipid)?
**A.** The solubility was 20 mg/mL (≈ 50.1 mM).

**Q.** And the “Female Partition Coefficient (Kp), liver-plasma” value (from here on “Female Partition Coefficient”) [2, 3]?
**A.** The value was 0.516 and 0.491 and 0.293 and 0.378.

**Q.** What about the “Male Partition Coefficient (Kp), liver-plasma” value [2, 3] of the same compound?
**A.** Its value is 0.662 and 0.433 and 0.319 and 0.860 and 0.744.

**Q.** What about the “Female Partition Coefficient” value [2, 4] of the same compound?
**A.** The value was 0.633 and 0.239 and 0.486 and 0.499 and 0.302.

**Q.** And the “Male Partition Coefficient (Kp), liver-plasma” value [2, 4]?
**A.** Its value is 0.215 and 0.362 and 0.134 and 0.315 and 0.255.

**Q.** And the “Female Partition Coefficient” value ([2]; PFHxSA 1 mg/kg/day oral 5 days)?
**A.** The value was 0.197 and 0.224 and 0.122 and 0.325.

**Q.** What about the “Male Partition Coefficient (Kp), liver-plasma” value ([2]; PFHxSA 1 mg/kg/day oral 5 days) of the same compound?
**A.** Its value is 0.233 and 0.174 and 0.293 and 0.249.

**Q.** And the “Female Partition Coefficient” value ([2]; PFHxSA 3 mg/kg/day oral 5 days)?
**A.** The value was 0.280 and 0.239 and 0.244.

**Q.** And the “Male Partition Coefficient (Kp), liver-plasma” value ([2]; PFHxSA 3 mg/kg/day oral 5 days)?
**A.** The value was 0.193 and 0.153 and 0.235 and 0.105 and 0.244.

**Q.** And the “Female Partition Coefficient” value ([2]; PFHxSA 10 mg/kg/day oral 5 days)?
**A.** Its value is 0.145 and 0.119 and 0.113 (2×).
